Assays:
EphA8 = biological target: T1, EphA8 (Homo sapiens, UniProt P29322); assay: EphA8 Kinase Activity Assay; assay type: biochemical; details: read-out: EphA8, % INH, at 30 uM
T1 sequence (P29322 28-1005): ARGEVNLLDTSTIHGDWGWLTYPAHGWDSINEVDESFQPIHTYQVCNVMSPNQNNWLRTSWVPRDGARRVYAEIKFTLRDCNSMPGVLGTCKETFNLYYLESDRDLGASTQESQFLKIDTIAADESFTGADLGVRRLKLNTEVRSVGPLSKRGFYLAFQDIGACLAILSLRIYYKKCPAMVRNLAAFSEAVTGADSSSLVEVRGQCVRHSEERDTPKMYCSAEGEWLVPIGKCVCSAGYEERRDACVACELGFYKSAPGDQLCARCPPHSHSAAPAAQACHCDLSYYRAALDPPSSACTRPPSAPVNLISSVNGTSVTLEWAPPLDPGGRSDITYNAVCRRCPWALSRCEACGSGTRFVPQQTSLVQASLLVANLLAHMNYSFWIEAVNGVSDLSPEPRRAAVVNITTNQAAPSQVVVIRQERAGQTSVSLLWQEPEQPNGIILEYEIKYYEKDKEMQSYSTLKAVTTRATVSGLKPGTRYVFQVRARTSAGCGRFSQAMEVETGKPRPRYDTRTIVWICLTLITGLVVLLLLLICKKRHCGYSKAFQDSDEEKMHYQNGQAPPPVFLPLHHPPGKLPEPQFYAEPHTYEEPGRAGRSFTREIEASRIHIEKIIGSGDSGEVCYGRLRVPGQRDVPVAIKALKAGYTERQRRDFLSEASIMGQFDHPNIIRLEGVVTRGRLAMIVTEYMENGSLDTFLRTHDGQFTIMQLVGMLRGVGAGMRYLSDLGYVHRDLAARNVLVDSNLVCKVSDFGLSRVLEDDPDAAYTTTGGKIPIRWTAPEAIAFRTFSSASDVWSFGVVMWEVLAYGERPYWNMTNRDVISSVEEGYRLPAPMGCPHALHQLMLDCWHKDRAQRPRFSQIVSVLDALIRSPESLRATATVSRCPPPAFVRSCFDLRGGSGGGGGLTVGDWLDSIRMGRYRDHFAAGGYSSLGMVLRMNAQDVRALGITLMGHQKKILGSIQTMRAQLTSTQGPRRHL
Protocol: (§1) Nunc Maxisorb plates are coated with streptavidin by overnight incubation with 100 μL per well of 1 μg/ml Streptavidin in DPBS. Prior to the start of the experiment, the plates are washed with TBST (3×200 μL) and blocked for at least 1 hour by adding 150 μL of 5% BSA/TBST. The plates are washed with TBST (3×200 μL/well) and left dry immediately before the capture step.
The test articles and control (Staurosporine) are prepared using the following assay buffer @ 3× desired final concentration (50 mM Tris-HCl, 0.02 mg/ml BSA, 10 mM MgCl2, 0.1 mM Na3VO4, 1 mM EGTA, 12.5 μM ATP, 0.01% NP-40, 1 mM DTT in 10% glycerol/water). In a reaction plate are added rapidly 20 μl test article (or control) and 20 μl EphA8 (0.12 ng/μl final concentration). The plate is incubated for 15 minutes. To the reaction plate is added 20 μl of Pyk-2 (0.75 ng/μl final concentration). The plate is incubated at room temperature for one hour. From the reaction plate, 50 μl is transferred to the streptavidin coated plate. The capture plate is incubated at room temperature for 30 minutes, then washed 6× with TBST. To the capture plate is added 100 μL/well of Cell Signaling anti-phospho tyrosine at a dilution of 1:3000 in 2% BSA/TBST. The plate is incubated for one hour at room temperature then washed 6× with TBST. To the capture plate is added 100 μL/well of Alkaline Phosphatase Tagged Goat anti Mouse Antibody at a dilution of 1:4000 in 2% BSA/TBST. The plate is incubated for one hour at room temperature then washed 6× with TBST. The fluorescent readout is initiated by the addition of 100 μl/well of Attophos reagent (6 mg/10 mL). The reading is done on the Perkin Elmer Envision system.

RET kinase = RET kinase (Homo sapiens, UniProt P07949); assay: RET Kinase Activity Assay; assay type: biochemical; details: read-out: Ret, % INH, at 30 uM
Chain of RET kinase (P07949 29-1114): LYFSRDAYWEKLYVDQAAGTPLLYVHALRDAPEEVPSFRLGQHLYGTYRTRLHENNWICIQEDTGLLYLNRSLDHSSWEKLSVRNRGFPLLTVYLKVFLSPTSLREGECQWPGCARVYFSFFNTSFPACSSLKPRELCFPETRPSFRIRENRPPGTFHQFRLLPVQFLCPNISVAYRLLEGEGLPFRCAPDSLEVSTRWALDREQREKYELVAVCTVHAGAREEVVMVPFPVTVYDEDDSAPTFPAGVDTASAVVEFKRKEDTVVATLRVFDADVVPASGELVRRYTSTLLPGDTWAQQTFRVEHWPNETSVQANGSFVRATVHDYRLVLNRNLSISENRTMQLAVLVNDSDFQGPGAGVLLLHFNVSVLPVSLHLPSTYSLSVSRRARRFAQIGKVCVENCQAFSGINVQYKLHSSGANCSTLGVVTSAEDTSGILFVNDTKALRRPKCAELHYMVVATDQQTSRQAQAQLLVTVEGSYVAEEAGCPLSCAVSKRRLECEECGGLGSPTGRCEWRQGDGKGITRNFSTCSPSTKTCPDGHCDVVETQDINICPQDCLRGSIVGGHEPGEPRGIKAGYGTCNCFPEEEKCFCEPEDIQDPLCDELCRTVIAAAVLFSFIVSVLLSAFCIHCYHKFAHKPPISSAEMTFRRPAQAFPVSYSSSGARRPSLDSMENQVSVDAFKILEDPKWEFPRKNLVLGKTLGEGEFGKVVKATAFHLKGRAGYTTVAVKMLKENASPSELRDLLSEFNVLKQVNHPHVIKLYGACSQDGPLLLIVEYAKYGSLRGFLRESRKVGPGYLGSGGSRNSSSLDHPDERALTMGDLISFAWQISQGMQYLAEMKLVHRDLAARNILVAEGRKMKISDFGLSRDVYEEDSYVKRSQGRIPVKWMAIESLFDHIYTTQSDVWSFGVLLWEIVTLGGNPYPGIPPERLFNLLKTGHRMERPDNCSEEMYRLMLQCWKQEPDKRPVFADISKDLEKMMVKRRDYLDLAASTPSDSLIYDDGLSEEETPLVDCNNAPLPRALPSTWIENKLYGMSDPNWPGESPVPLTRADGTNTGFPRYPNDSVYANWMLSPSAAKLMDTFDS
Protocol: as §1, with “The disclosed compounds were assayed for their ability to inhibit the activity of RET kinase. Nunc” for “Nunc”, “Maxwasorb” for “Maxisorb”, “were” for “are”, “μg/mL” for “μg/ml”, “[…])” for “μL/well)”
The test articles and controls (Staurosporine and Sutent) were prepared using the following assay buffer @ 3× desired final concentration (50 mM […], 0.02 mg/mL BSA, 10 mM MgCl2, 0.1 mM Na3VO4, 1 mM EGTA, 75 μM ATP0.01% NP-40, 2 mM DTT in 10% glycerol/water). In a reaction plate, were added rapidly 20 μL test article (or control) and 20 μL RET (0.25 ng/4 final concentration). The plate was incubated for 15 minutes. To the reaction plate was added 20 μL of Pyk-2 (0.25 ng/4 final concentration). The plate was incubated at room temperature for one hour.
From the reaction plate, 50 μL was transferred to the streptavidin coated plate. The capture plate was incubated at room temperature for 30 minutes then washed 6× with TBST. To the capture plate was added 100 μL/well of Cell Signaling anti-phospho tyrosine at a dilution of 1:3000 in 2% BSA/TBST. The plate was incubated for one hour at room temperature then washed 6× with TBST. To the capture plate was added 100 μL/well of Alkaline Phosphatase Tagged Goat anti Mouse Antibody at a dilution of 1:4000 in 2% BSA/TBST. The plate was incubated for one hour at room temperature then washed 6× with TBST. The fluorescent readout was initiated by the addition of 100 μL/well of Attophos reagent (6 mg/10 mL). The reading was done on the Perkin Elmer Envision system.

inhibition at 30 µM (EphA8) [%] | inhibition at 30 µM (RET kinase) [%] | SMILES
50 to 79 | 50 to 79 | COc1cccc(CN2CCN(c3nc(N)nc4[nH]ncc34)Cc3ccccc32)c1 [Compound 1, 4-[1-(3-methoxybenzyl)-1,2,3,5-tetrahydro-4H-1,4-benzodiazepin-4-yl]-1H-pyrazolo[3,4-d]pyrimidin-6-amine]
< 50 | 50 to 79 | COc1cccc(CN2CCN(c3nc(N)nc4[nH]cnc34)Cc3ccccc32)c1 [Compound 2, 6-[1-(3-methoxybenzyl)-1,2,3,5-tetrahydro-4H-1,4-benzodiazepin-4-yl]-9H-purin-2-amine]
< 50 | < 50 | CC(C)c1ccc(CN2CCN(c3nc(N)nc4[nH]cnc34)Cc3ccccc32)cc1 [Compound 3, 6-[1-(4-isopropylbenzyl)-1,2,3,5-tetrahydro-4H-1,4-benzodiazepin-4-yl]-9H-purin-2-amine]
< 50 | < 50 | CC(C)c1ccc(CN2CCN(c3nc(N)nc4[nH]ncc34)Cc3ccccc32)cc1 [Compound 4, 4-[1-(4-isopropylbenzyl)-1,2,3,5-tetrahydro-4H-1,4-benzodiazepin-4-yl]-1H-pyrazolo[3,4-d]pyrimidin-6-amine]
50 to 79 | 50 to 79 | Nc1nc(N2CCN(Cc3cccc(F)c3)c3ccccc3C2)c2cn[nH]c2n1 [Compound 6, 4-[1-(3-fluorobenzyl)-1,2,3,5-tetrahydro-4H-1,4-benzodiazepin-4-yl]-1H-pyrazolo[3,4-d]pyrimidin-6-amine]
< 50 | < 50 | Nc1nc(N2CCN(CCCc3cccc(Cl)c3)c3ccccc3C2)c2nc[nH]c2n1 [Compound 7, 6-{1-[3-(3-chlorophenyl)propyl]-1,2,3,5-tetrahydro-4H-1,4-benzodiazepin-4-yl}-9H-purin-2-amine]
< 50 | < 50 | Nc1nc(N2CCN(CCCc3cccc(Cl)c3)c3ccccc3C2)c2cn[nH]c2n1 [Compound 8, 4-{1-[3-(3-chlorophenyl)propyl]-1,2,3,5-tetrahydro-4H-1,4-benzodiazepin-4-yl}-1H-pyrazolo[3,4-d]pyrimidin-6-amine]
< 50 | 50 to 79 | COc1ccccc1CN1CCN(c2nc(N)nc3[nH]cnc23)Cc2ccccc21 [Compound 9, 6-[1-(2-methoxybenzyl)-1,2,3,5-tetrahydro-4H-1,4-benzodiazepin-4-yl]-9H-purin-2-amine]
< 50 | < 50 | COc1ccccc1CN1CCN(c2nc(N)nc3[nH]ncc23)Cc2ccccc21 [Compound 10, 4-[1-(2-methoxybenzyl)-1,2,3,5-tetrahydro-4H-1,4-benzodiazepin-4-yl]-1H-pyrazolo[3,4-d]pyrimidin-6-amine]
< 50 | 50 to 79 | Cc1ccccc1CN1CCN(c2nc(N)nc3[nH]cnc23)Cc2ccccc21 [Compound 11, 6-[1-(2-methylbenzyl)-1,2,3,5-tetrahydro-4H-1,4-benzodiazepin-4-yl]-9H-purin-2-amine]
< 50 | < 50 | Cc1ccccc1CN1CCN(c2nc(N)nc3[nH]ncc23)Cc2ccccc21 [Compound 12, 4-[1-(2-methylbenzyl)-1,2,3,5-tetrahydro-4H-1,4-benzodiazepin-4-yl]-1H-pyrazolo[3,4-d]pyrimidin-6-amine]
< 50 | < 50 | Nc1nc(N2CCN(Cc3ccccc3Cl)c3ccccc3C2)c2nc[nH]c2n1 [Compound 13, 6-[1-(2-chlorobenzyl)-1,2,3,5-tetrahydro-4H-1,4-benzodiazepin-4-yl]-9H-purin-2-amine]
< 50 | < 50 | Nc1nc(N2CCN(Cc3ccccc3Cl)c3ccccc3C2)c2cn[nH]c2n1 [Compound 14, 4-[1-(2-chlorobenzyl)-1,2,3,5-tetrahydro-4H-1,4-benzodiazepin-4-yl]-1H-pyrazolo[3,4-d]pyrimidin-6-amine]
